Data published in PubChem BioAssay AID2060622 (Molecular Pharmacology Branch, DTP, NCI, 2025).

System: 242566-281-R-J2-PDC complex spheroid viability
Test: Anticancer human tumor 242566-281-R-J2-PDC patient-derived pancreatic carcinoma cell line growth inhibition [CLK]
Details: for IC50: curve of first compound; for viability, T/C: stronger effect = lower value
Outline: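 Multi-cell-type spheroids combined patient-derived tumor cells with HUVEC endothelial cells and human mesenchymal stem cells. Paired agents were dosed in half-log steps down from about clinical Cmax, or from 10 microM where Cmax was unknown.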

[1] = second compound 0.0316 µM, first compound 0.0316 µM
[2] = second compound 0.0316 µM, first compound 0.1 µM
[3] = second compound 0.0316 µM, first compound 0.316 µM
[4] = second compound 0.0316 µM, first compound 1 µM
[5] = second compound 0.0316 µM, first compound 3.16 µM
[6] = second compound 0.0316 µM, first compound 10 µM
[7] = second compound 0.1 µM, first compound 0.0316 µM
[8] = second compound 0.1 µM, first compound 0.1 µM
[9] = second compound 0.1 µM, first compound 0.316 µM
[10] = second compound 0.1 µM, first compound 1 µM
[11] = second compound 0.1 µM, first compound 3.16 µM
[12] = second compound 0.1 µM, first compound 10 µM
[13] = second compound 0.316 µM, first compound 0.0316 µM
[14] = second compound 0.316 µM, first compound 0.1 µM
[15] = second compound 0.316 µM, first compound 0.316 µM
[16] = second compound 0.316 µM, first compound 1 µM
[17] = second compound 0.316 µM, first compound 3.16 µM
[18] = second compound 0.316 µM, first compound 10 µM
[19] = second compound 1 µM, first compound 0.0316 µM
[20] = second compound 1 µM, first compound 0.1 µM
[21] = second compound 1 µM, first compound 0.316 µM
[22] = second compound 1 µM, first compound 1 µM
[23] = second compound 1 µM, first compound 3.16 µM
[24] = second compound 1 µM, first compound 10 µM
[25] = second compound 3.16 µM, first compound 0.0316 µM
[26] = second compound 3.16 µM, first compound 0.1 µM
[27] = second compound 3.16 µM, first compound 0.316 µM
[28] = second compound 3.16 µM, first compound 1 µM
[29] = second compound 3.16 µM, first compound 3.16 µM
[30] = second compound 3.16 µM, first compound 10 µM
[31] = second compound 10 µM, first compound 0.0316 µM
[32] = second compound 10 µM, first compound 0.1 µM
[33] = second compound 10 µM, first compound 0.316 µM
[34] = second compound 10 µM, first compound 1 µM
[35] = second compound 10 µM, first compound 3.16 µM
[36] = second compound 10 µM, first compound 10 µM
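Further: spheroids exposed to compounds for 7 days before readout.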
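Wherever viability, T/C is given: 100% = DMSO vehicle control wells.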

CC1(C)CCC(CN2CCN(c3ccc(C(=O)NS(=O)(=O)c4ccc(NCC5CCOCC5)c([N+](=O)[O-])c4)c(Oc4cnc5[nH]ccc5c4)c3)CC2)=C(c2ccc(Cl)cc2)C1 + CNC(=O)c1ccc(Nc2nc(OC3CCCC3)c3c(-c4ccc5nc(C)oc5c4)c[nH]c3n2)c(OC)c1
IC50 (second compound 0.0316 µM): > 10 µM | IC50 (second compound 0.1 µM): > 10 µM | IC50 (second compound 0.316 µM): 10 µM | IC50 (second compound 1 µM): > 10 µM | IC50 (second compound 3.16 µM): > 10 µM | IC50 (second compound 10 µM): > 10 µM | viability, T/C [1]: 80% | viability, T/C [2]: 95.8% | viability, T/C [3]: 113% | viability, T/C [4]: 123% | viability, T/C [5]: 115% | viability, T/C [6]: 96.4% | viability, T/C [7]: 83% | viability, T/C [8]: 92% | viability, T/C [9]: 97.2% | viability, T/C [10]: 131% | viability, T/C [11]: 105% | viability, T/C [12]: 73.9% | viability, T/C [13]: 87.3% | viability, T/C [14]: 96.6% | viability, T/C [15]: 72% | viability, T/C [16]: 92.4% | viability, T/C [17]: 84.8% | viability, T/C [18]: 50% | viability, T/C [19]: 71.2% | viability, T/C [20]: 68.4% | viability, T/C [21]: 69.7% | viability, T/C [22]: 73% | viability, T/C [23]: 77.9% | viability, T/C [24]: 60.4% | viability, T/C [25]: 51.9% | viability, T/C [26]: 54% | viability, T/C [27]: 57.8% | viability, T/C [28]: 61.8% | viability, T/C [29]: 66.3% | viability, T/C [30]: 45.4% | viability, T/C [31]: 54.6% | viability, T/C [32]: 49.2% | viability, T/C [33]: 54.3% | viability, T/C [34]: 55.3% | viability, T/C [35]: 60.2% | viability, T/C [36]: 46.8%

CC1COCCN1c1cc(C2(S(C)(=N)=O)CC2)nc(-c2ccnc3[nH]ccc23)n1 (centres undefined) + CNC(=O)c1ccc(Nc2nc(OC3CCCC3)c3c(-c4ccc5nc(C)oc5c4)c[nH]c3n2)c(OC)c1
IC50 (second compound 0.0316 µM): > 10 µM | IC50 (second compound 0.1 µM): > 10 µM | IC50 (second compound 0.316 µM): 7.16 µM | IC50 (second compound 1 µM): 0.763 µM | IC50 (second compound 3.16 µM): 0.192 µM | IC50 (second compound 10 µM): 0.0613 µM | viability, T/C [1]: 89% | viability, T/C [2]: 105% | viability, T/C [3]: 117% | viability, T/C [4]: 118% | viability, T/C [5]: 92.2% | viability, T/C [6]: 61% | viability, T/C [7]: 84.7% | viability, T/C [8]: 90.1% | viability, T/C [9]: 91.6% | viability, T/C [10]: 104% | viability, T/C [11]: 93% | viability, T/C [12]: 55.6% | viability, T/C [13]: 76.8% | viability, T/C [14]: 77.8% | viability, T/C [15]: 80.3% | viability, T/C [16]: 70.8% | viability, T/C [17]: 71% | viability, T/C [18]: 41.7% | viability, T/C [19]: 73.9% | viability, T/C [20]: 69.7% | viability, T/C [21]: 55.1% | viability, T/C [22]: 49.4% | viability, T/C [23]: 34.3% | viability, T/C [24]: 17.7% | viability, T/C [25]: 55.2% | viability, T/C [26]: 55.1% | viability, T/C [27]: 46.9% | viability, T/C [28]: 36.2% | viability, T/C [29]: 24.6% | viability, T/C [30]: 13.4% | viability, T/C [31]: 52.5% | viability, T/C [32]: 47.1% | viability, T/C [33]: 43.8% | viability, T/C [34]: 33.2% | viability, T/C [35]: 22.1% | viability, T/C [36]: 13.5%
